These results are taken from ChEMBL document CHEMBL1159265, “Bis(sulfato)-cyclosiphonodictyol A, a new disulfated sesquiterpene-hydroquinone from a deep water collection of the Marine sponge Siphonodictyon coralliphagum” (J Nat Prod, 1995).

This experiment concerns the target Leukotriene B4 receptor 1 (Homo sapiens, UniProt Q15722). The experiment is described as follows: Displacement of [3H]LTB4 from LTB4 receptor in human neutrophils. A general note: Displacement assays read how much labelled ligand stays bound in the presence of the test substance.

Sequence of Leukotriene B4 receptor 1 (Q15722 whole entry): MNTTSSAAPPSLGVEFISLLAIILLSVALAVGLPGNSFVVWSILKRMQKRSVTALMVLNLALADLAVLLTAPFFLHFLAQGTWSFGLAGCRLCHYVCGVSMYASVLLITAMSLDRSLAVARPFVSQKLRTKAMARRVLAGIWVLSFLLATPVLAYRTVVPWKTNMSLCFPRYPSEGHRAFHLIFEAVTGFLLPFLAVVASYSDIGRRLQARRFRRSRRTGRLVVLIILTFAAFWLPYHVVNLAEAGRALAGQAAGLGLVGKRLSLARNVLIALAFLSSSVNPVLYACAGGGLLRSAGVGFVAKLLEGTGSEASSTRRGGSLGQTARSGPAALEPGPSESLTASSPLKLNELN

As a reminder, the IC50 is the concentration that inhibits the measured activity by half. Read a low IC50 as greater potency. On to `CC1(C)CCC[C@]2(C)[C@H]3Cc4c(OS(=O)(=O)O)ccc(OS(=O)(=O)O)c4CO[C@]3(C)CC[C@@H]12`, for which the IC50 worked out at 44.5 µM.
